Entries after “also recorded” stand apart in the source; their conditions may differ.
Key:
rabbit NHE3 = rabbit NHE3 (Oryctolagus cuniculus, UniProt P26432)
Description: Internal pH was measured either following acid loading or in the absence of an acid-loading challenge, with the results shown in FIGS. 1A and 1B.
Specifically, PS120 fibroblasts transfected with rabbit NHE3 were grown in supplemented Dulbecco's-modified Eagle's medium as described by Levine et al., J. Biol. Chem. 268, 1993, 25527-25535. […] For cells not acid-preloaded, the actual internal pH value was monitored as a function of time following addition of squalamine, with the results depicted in FIG. 1B.
PS120 fibroblasts transfected with rabbit NHE3 were grown and acid preloaded by exposure to 40 mM NH4 Cl as described above in conjunction with FIGS. 1A and 1B. Internal cellular pH changes expressed as the rate of pH recovery as a function of restored extracellular sodium ion concentration following exposure to 10 μg/ml of the compound were assayed with the fluorescent dye BCECF-AM as described above.

rabbit NHE1 = experiment: internal pH changes in PS120 fibroblasts transfected with rabbit NHE1; format: cell-based; conditions: 5 μg/ml, FIG. 2A
Description: (§1) PS120 fibroblasts transfected with rabbit: or human NHE1 were grown as described above.

B16 melanoma = experiment: suppression of growth of B16 melanoma in C57B mice; format: in vivo, mouse
Description: The growth of B16 melanoma in C57B mice is dependent upon neovascularization.
Using the growth of B16 melanoma cells in C57B mice, a recognized model for the evaluation of inhibitors of angiogenesis on the growth of cancers, the effects of subcutaneous, intraperitoneal and oral administration of squalamine were evaluated.
Based on the idea that tumor growth involves both the clonal expansion of a malignant cell along with the development of a supporting vascular supply, a combination of compound 1436 with squalamine was tested to determine whether it would achieve a synergistic effect on solid tumor growth. This concept was evaluated in the B16 melanoma model.
Animals were implanted with B16 melanoma followed by treatment with compound 1436 or 1256 administered in a combined schedule or separately. […] Thus, a combination of these two compounds achieves a therapeutic benefit in tumors dependent on neovascularization that may prevent metastatic spread.

[1] = test system: human umbilical venous endothelial cells; experiment: LPS-induced neutrophil adherence to human umbilical venous endothelial cells; conditions: 10 μg, 1.0 μg, or 0.1 μg; activated human endothelial cells
Description: In these experiments, approximately 2×10^5 human umbilical venous cells (passage 2-6) were plated per well. The cells were grown in serum-free media overnight. For induction, either TNF-α (40 ng/ml) was added to endothelial cells for 6 hours prior to adding neutrophils or LPS (100 ng/ml) was added for 4-6 hours. […] After activation of the endothelial cells, approximately 50×10^6 neutrophils were added per well. The plates were gently rocked for 30 minutes at room temperature, followed by removal of the media and washing in serum-free media three times and then photographing of each well. […] A monoclonal Ab to ICAM-1 was a positive control.

[2] = test system: human microvascular cells; experiment: inhibition of endothelial cell cord formation in vitro; format: cell-based
Text: Endothelial cells have the capacity in vitro to form tubular aggregates resembling capillaries in various early stages of formation. This conversion occurs under relatively specific conditions, in which essential growth factors along with an effective substratum are provided. It has been shown that both the interaction of growth factors with the endothelial cell and its attachment to a substratum activate the NHE. The activation of this exchanger is believed to be required for subsequent morphologic transformation of the endothelial cell into a multicellular tubular structure.
To assess the effect of compounds on the cord-like structures formed by human microvascular cells when plated in the presence of VEGF (Vascular Endothelial Growth Factor) and basic fibroblast growth factor on a collagen matrix, a standard cord formation assay was used.

[3] = test system: human epithelial cell line MCF 10A; experiment: growth inhibition of epithelial cells in vitro (absorbance at 600 nm); format: cell-based; conditions: 10 μg/ml, FIG. 3B
[4] = test system: human foreskin fibroblasts; experiment: growth inhibition of fibroblasts in vitro (absorbance at 600 nm); format: cell-based; conditions: 10 μg/ml, FIG. 3C
[5] = test system: stage 59-60 Xenopus tadpole; experiment: Xenopus tadpole assay; conditions: 10 μg/ml; for tadpole response: about 1 hour
[6] = test system: chick embryo vitelline capillaries; experiment: chick embryo vitelline capillary regression assay; format: in vivo
Description: Using the chick embryo vitelline capillaries assay, compounds were tested for their ability to induce capillary regression. Each compound was applied in 0.1 ml of 15% Ficol 400 and PBS onto the embryo, and vascular regression was assessed after 60 minutes.
The 3-day chick embryo consists of an embryonic disc from which numerous vessels emerge and return, forming a "FIG. 8"-shaped structure--the embryo in the center with vascular loops extending outward over both poles. […] Following a lag period of around 15 minutes, the constriction of continuity between capillary and secondary vessels, generally on the "venous" side, was observed. Continued pulsatile blood flow progressed, resulting in a "swelling" of the blind tube, followed by a pinching off of the remaining connection and formation of an enclosed vascular sac resembling a "blood island." This process progressed until only the largest vessels remained intact.

[7] = test system: chick chorioallantoic membrane; experiment: chorioallantoic membrane (CAM) model, inhibition of capillary growth; format: in vivo; conditions: 3-Day embryo
Text: The growing capillaries within the chorioallantoic membrane model (CAM model) have been used as a system in which to evaluate the effect of agents on their potential to inhibit new vessel growth. Neovascularization occurs most aggressively over the first week of embryonic development. Thereafter capillary growth is characterized by principally "elongation" rather than "de novo" formation.
In the standard assay, agents are applied locally to a region of the embryo over which neovascularization will occur. Agents are assessed by their ability to inhibit this process, as evaluated by visual examination about 7 days after application. […] The assay utilized is described in detail in Auerbach et al., Pharm. Ther. 51, 1991, 1-11.

[8] = test system: human coronary artery smooth muscle; experiment: proliferation of human coronary artery smooth muscle in vitro; format: cell-based; conditions: FIG. 15
Text: Aminosterols of the invention may also have utility in inhibiting the growth factor mediated proliferation of smooth muscle within the artery. Following coronary angioplasty, reocclusion commonly occurs, secondary to reparative proliferation of the vascular smooth muscle within the wall of the surgically manipulated blood vessel. This process generally takes place over the course of 7-10 days. To evaluate whether an agent could prevent the growth factor mediated proliferation of smooth muscle within the artery, compound 1436 was evaluated in vitro for its effect on the proliferation of human coronary artery smooth muscle. Results for compound 1436 are shown in FIG. 13, and those for squalamine are shown in FIG. 14, with FIG. 15 being a composite logarithmic plot.

human NHE1 = experiment: internal pH changes in PS120 fibroblasts transfected with human NHE1; format: cell-based; conditions: 5 μg/ml, FIG. 2B
Description: as §1

Murine B16 melanoma = experiment: growth inhibition in vitro; format: cell-based; conditions: except at very high concentrations
Text: As set forth in Table 7 below, all malignant tumors evaluated in tissue culture, endothelial cells and vascular smooth muscle cells were sensitive to inhibition. Thus, compound 1436 has application in the control of growth factor dependent proliferation of many types of tissue.

melanoma 1205Lu = experiment: suppression of growth of human melanoma in immunocompromised (RAG-1) mice; format: in vivo, human melanoma in mouse; conditions: FIG. 5, listed as Squalamine
Text: As apparent from FIG. 5, melanoma 1205Lu develops aggressively in RAG-1 mice after implantation.

Sequence of rabbit NHE3 (P26432 30-832): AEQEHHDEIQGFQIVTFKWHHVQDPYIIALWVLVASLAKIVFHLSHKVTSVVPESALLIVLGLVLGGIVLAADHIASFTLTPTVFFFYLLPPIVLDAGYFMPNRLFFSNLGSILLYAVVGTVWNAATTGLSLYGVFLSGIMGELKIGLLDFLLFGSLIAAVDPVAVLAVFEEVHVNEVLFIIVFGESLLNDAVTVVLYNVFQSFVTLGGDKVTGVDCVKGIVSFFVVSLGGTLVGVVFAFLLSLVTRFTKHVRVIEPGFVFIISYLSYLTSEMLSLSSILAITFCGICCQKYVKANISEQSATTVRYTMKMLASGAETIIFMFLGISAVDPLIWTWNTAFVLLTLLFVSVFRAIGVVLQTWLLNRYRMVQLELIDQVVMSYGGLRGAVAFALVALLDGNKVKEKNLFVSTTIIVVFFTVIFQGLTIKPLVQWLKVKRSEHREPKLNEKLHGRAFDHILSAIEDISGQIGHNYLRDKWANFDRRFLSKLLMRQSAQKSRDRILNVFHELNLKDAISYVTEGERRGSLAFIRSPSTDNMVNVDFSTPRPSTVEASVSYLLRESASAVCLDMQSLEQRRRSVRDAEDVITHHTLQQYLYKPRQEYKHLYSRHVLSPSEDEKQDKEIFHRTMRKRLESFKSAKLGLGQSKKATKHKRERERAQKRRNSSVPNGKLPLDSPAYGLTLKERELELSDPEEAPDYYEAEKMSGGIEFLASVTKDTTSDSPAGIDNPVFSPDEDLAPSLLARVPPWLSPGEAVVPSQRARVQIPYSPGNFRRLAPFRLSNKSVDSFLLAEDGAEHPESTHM

CC(C)[C@@H](CC[C@@H](C)[C@H]1CC[C@H]2[C@@H]3[C@H](O)C[C@H]4C[C@@H](NCCCNCCCCN)CC[C@]4(C)[C@H]3CC[C@]12C)OS(=O)(=O)O [Compound 1256]
inhibition of NHE3 (rate of pH recovery) (rabbit NHE3; 5 μg/ml squalamine, FIGS. 1A, 1B): inhibited NHE3 with respect to proton concentration at both Km and Vmax levels
resting pH of cells (rabbit NHE3; 5 μg/ml, FIG. 1B, not acid-preloaded): the resting pH of these cells was also inhibited
inhibition of rabbit NHE1 (rabbit NHE1): no inhibitory activity
impact on tumor volume (B16 melanoma; 5 mg/kg/day alone, FIG. 12): no significant impact on tumor volume
body weight and hematologic parameters (B16 melanoma; mouse, in vivo): no significant depression
tumor volume (B16 melanoma; subcutaneous, intraperitoneal or oral, FIGS. 4A-4C): dose-dependent suppression of tumor volume
inhibition of neutrophil adherence [1]: no inhibition
minimal effective concentration ([2]; Homo sapiens, Endothelial cell, Table II, read-out: Minimum Effective Concentration, Cord Formation): 0.01 to 0.1 µg/mL
cell viability or proliferation ([2]; at cord-inhibiting concentrations): does not appear to profoundly affect cell viability or proliferation
growth of epithelial cells [3]: no effect on the growth
growth of fibroblasts [4]: no effect on the growth
time to death of tadpole [5]: ≤ 2 h
tadpole response [5]: Vascular occlusion in fine capillaries of tail. No effect on vascular flow through hands or feet
tadpole response ([5]; listed as squalamine): blood flow through the capillaries of the tail shut down; also recorded: common vascular occlusive effect
effect on vitelline capillaries ([6]; 3- to 5-day chick embryos): disrupt vitelline capillaries
relative activity ([6]; Table 5): especially active
lag period ([6]; constriction between capillary and secondary vessels): around 15 minutes
hemorrhage / hemolysis ([6]; in vivo, listed as Squalamine): No hemorrhage was seen; also recorded: absence of hemolysis
Percentage positive ([7]; 0.65 μg, Assay 1): 28 Percentage
Percentage positive ([7]; 1.25 μg, Assay 1): 18 Percentage
Percentage positive ([7]; 1.25 μg, Assay 2): 18 Percentage
Percentage positive ([7]; 1.25 μg, Mean): 18 Percentage
Percentage positive ([7]; 2.5 μg, Assay 1): 35 Percentage
Percentage positive ([7]; 2.5 μg, Assay 2): 18 Percentage
Percentage positive ([7]; 2.5 μg, Mean): 27 Percentage
Percentage positive ([7]; 5.0 μg, Assay 1): 91 Percentage
Percentage positive ([7]; 5.0 μg, Assay 2): 57 Percentage
Percentage positive ([7]; 5.0 μg, Mean): 74 Percentage
Percentage positive ([7]; 20 μg, Assay 1, some vascular irritation): 52 Percentage
Percentage positive ([7]; 20 μg, Assay 2, some vascular irritation): 58 Percentage
Percentage positive ([7]; 20 μg, Mean): 55 Percentage
Percentage positive ([7]; 40 μg, Assay 1, some vascular irritation): 50 Percentage
Percentage positive ([7]; 40 μg, Assay 2, some vascular irritation): 13 Percentage
Percentage positive ([7]; 40 μg, Mean): 32 Percentage
vascular irritation ([7]; 20 and 40 μg): Some vascular irritation noted
growth of human coronary artery smooth muscle [8]: suppress in vitro the growth
inhibition of human NHE1 (human NHE1): no inhibitory activity
cytostatic activity against B16 in culture (Murine B16 melanoma): minimal cytostatic activity
growth of melanoma 1205Lu (melanoma 1205Lu): suppress the growth of melanoma 1205Lu in RAG-1 mice in a dose-dependent fashion; also recorded: clear suppression of tumor growth in a dose-dependent fashion
